According to patent publication US9695155B2, “Herbicidal substituted pyrimidinyloxy benzene compounds” (E. I. DU PONT DE NEMOURS AND COMPANY, priority 2013, dated 2017):

Tests used:
Test in all cases: Test C preemergence
pigweed = type: in vivo, Amaranthus retroflexus; conditions: Amaranthus retroflexus, pre-emergence
Method in brief: (§1)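 Seeds are planted in blended loam soil and sand and treated preemergence, while seedlings in a peat moss/vermiculite medium receive postemergence sprays at 2 to 18 cm height. All plants stay in the greenhouse for 13 to 15 days before visual comparison with controls on a 0–100 scale.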

barnyardgrass = type: in vivo, Echinochloa crus-galli; conditions: Echinochloa crus-galli, pre-emergence
Method in brief: as §1

large (Lg) crabgrass = type: in vivo, Digitaria sanguinalis; conditions: Digitaria sanguinalis, pre-emergence
Method in brief: as §1

giant foxtail = type: in vivo, Setaria faberii; conditions: Setaria faberi, pre-emergence
Method in brief: as §1

oilseed rape = type: in vivo, Brassica napus; conditions: Brassica napus, pre-emergence
Method in brief: as §1

galium = type: in vivo, Galium aparine; conditions: Galium, pre-emergence
Method in brief: as §1

morningglory = type: in vivo, Ipomoea coccinea; conditions: Ipomoea, pre-emergence
Method in brief: as §1

blackgrass = type: in vivo, Alopecurus myosuroides; conditions: Alopecurus myosuroides, pre-emergence
Method in brief: as §1

soybean = type: in vivo, Glycine max; conditions: Glycine max, pre-emergence
Method in brief: as §1

velvetleaf = type: in vivo, Abutilon theophrasti; conditions: Abutilon theophrasti, pre-emergence
Method in brief: as §1

ragweed = type: in vivo, Ambrosia elatior; conditions: Ambrosia artemisiifolia, pre-emergence
Method in brief: as §1

lambsquarters = type: in vivo, Chenopodium album; conditions: Chenopodium album, pre-emergence
Method in brief: as §1

waterhemp = type: in vivo, Amaranthus rudis; conditions: Amaranthus tuberculatus, pre-emergence
Method in brief: as §1

N#Cc1cccc(Oc2ncc(F)cn2)c1-n1cc(C(F)(F)F)cn1 [Compound 79, 3-[(5-fluoro-2-pyrimidinyl)oxy]-2-[4-(trifluoromethyl)-1H-pyrazol-1-yl]benzonitrile] showed a pest or weed control at 62 g/ha (pigweed; 62 g ai/ha, preemergence, scale 0 (no effect) to 100 (complete control), read-out: Pigweed plant response rating) of 100%, a pest or weed control at 125 g/ha (pigweed; 125 g ai/ha, preemergence, scale 0 (no effect) to 100 (complete control), read-out: Pigweed plant response rating) of 100% and a pest or weed control at 250 g/ha (pigweed; 250 g ai/ha, preemergence, scale 0 (no effect) to 100 (complete control), read-out: Pigweed plant response rating) of 100%. The pest or weed control at 31 g/ha (pigweed; Preemergence, 31 g ai/ha, scale 0 to 100, 0 no effect, 100 complete control, read-out: Plant response rating, Pigweed) was 100%, the pest or weed control at 62 g/ha (barnyardgrass; 62 g ai/ha, preemergence, scale 0 (no effect) to 100 (complete control), read-out: Barnyardgrass plant response rating) was 100% and the pest or weed control at 125 g/ha (barnyardgrass; 125 g ai/ha, preemergence, scale 0 (no effect) to 100 (complete control), read-out: Barnyardgrass plant response rating) was 100%. It also gave a pest or weed control at 250 g/ha (barnyardgrass; 250 g ai/ha, preemergence, scale 0 (no effect) to 100 (complete control), read-out: Barnyardgrass plant response rating) of 100%, a pest or weed control at 31 g/ha (barnyardgrass; Preemergence, 31 g ai/ha, scale 0 to 100, 0 no effect, 100 complete control, read-out: Plant response rating, Barnyardgrass) of 100% and a pest or weed control at 62 g/ha (large (Lg) crabgrass; 62 g ai/ha, preemergence, scale 0 (no effect) to 100 (complete control), read-out: Crabgrass, Large plant response rating) of 100%. The pest or weed control at 125 g/ha (large (Lg) crabgrass; 125 g ai/ha, preemergence, scale 0 (no effect) to 100 (complete control), read-out: Crabgrass, Large plant response rating) was 100%, the pest or weed control at 250 g/ha (large (Lg) crabgrass; 250 g ai/ha, preemergence, scale 0 (no effect) to 100 (complete control), read-out: Crabgrass, Large plant response rating) was 100% and the pest or weed control at 31 g/ha (large (Lg) crabgrass; Preemergence, 31 g ai/ha, scale 0 to 100, 0 no effect, 100 complete control, read-out: Plant response rating, Crabgrass, Large) was 100%. It also gave a pest or weed control at 62 g/ha (giant foxtail; 62 g ai/ha, preemergence, scale 0 (no effect) to 100 (complete control), read-out: Foxtail, Giant plant response rating) of 100%, a pest or weed control at 125 g/ha (giant foxtail; 125 g ai/ha, preemergence, scale 0 (no effect) to 100 (complete control), read-out: Foxtail, Giant plant response rating) of 100% and a pest or weed control at 250 g/ha (giant foxtail; 250 g ai/ha, preemergence, scale 0 (no effect) to 100 (complete control), read-out: Foxtail, Giant plant response rating) of 100%. It also gave a pest or weed control at 31 g/ha (giant foxtail; Preemergence, 31 g ai/ha, scale 0 to 100, 0 no effect, 100 complete control, read-out: Plant response rating, Foxtail, Giant) of 98%, a plant injury at 62 g/ha (oilseed rape; 62 g ai/ha, preemergence, scale 0 (no effect) to 100 (complete control), read-out: Oilseed Rape plant response rating) of 95% and a plant injury at 125 g/ha (oilseed rape; 125 g ai/ha, preemergence, scale 0 (no effect) to 100 (complete control), read-out: Oilseed Rape plant response rating) of 95%. It also gave a plant injury at 250 g/ha (oilseed rape; 250 g ai/ha, preemergence, scale 0 (no effect) to 100 (complete control), read-out: Oilseed Rape plant response rating) of 95%, a plant injury at 31 g/ha (oilseed rape; Preemergence, 31 g ai/ha, scale 0 to 100, 0 no effect, 100 complete control, read-out: Plant response rating, Oilseed Rape) of 90% and a pest or weed control at 62 g/ha (galium; 62 g ai/ha, preemergence, scale 0 (no effect) to 100 (complete control), read-out: Galium plant response rating) of 90%. For the same molecule, the pest or weed control at 125 g/ha (galium; 125 g ai/ha, preemergence, scale 0 (no effect) to 100 (complete control), read-out: Galium plant response rating) was 90%, the pest or weed control at 250 g/ha (galium; 250 g ai/ha, preemergence, scale 0 (no effect) to 100 (complete control), read-out: Galium plant response rating) was 90% and the pest or weed control at 31 g/ha (galium; Preemergence, 31 g ai/ha, scale 0 to 100, 0 no effect, 100 complete control, read-out: Plant response rating, Galium) was 90%. For the same molecule, the pest or weed control at 62 g/ha (morningglory; 62 g ai/ha, preemergence, scale 0 (no effect) to 100 (complete control), read-out: Morningglory plant response rating) was 100%, the pest or weed control at 125 g/ha (morningglory; 125 g ai/ha, preemergence, scale 0 (no effect) to 100 (complete control), read-out: Morningglory plant response rating) was 100% and the pest or weed control at 250 g/ha (morningglory; 250 g ai/ha, preemergence, scale 0 (no effect) to 100 (complete control), read-out: Morningglory plant response rating) was 100%. For the same molecule, the pest or weed control at 31 g/ha (morningglory; Preemergence, 31 g ai/ha, scale 0 to 100, 0 no effect, 100 complete control, read-out: Plant response rating, Morningglory) was 95%, the pest or weed control at 62 g/ha (blackgrass; 62 g ai/ha, preemergence, scale 0 (no effect) to 100 (complete control), read-out: Blackgrass plant response rating) was 90% and the pest or weed control at 125 g/ha (blackgrass; 125 g ai/ha, preemergence, scale 0 (no effect) to 100 (complete control), read-out: Blackgrass plant response rating) was 90%. For the same molecule, the pest or weed control at 250 g/ha (blackgrass; 250 g ai/ha, preemergence, scale 0 (no effect) to 100 (complete control), read-out: Blackgrass plant response rating) was 90%, the pest or weed control at 31 g/ha (blackgrass; Preemergence, 31 g ai/ha, scale 0 to 100, 0 no effect, 100 complete control, read-out: Plant response rating, Blackgrass) was 90% and the plant injury at 62 g/ha (soybean; 62 g ai/ha, preemergence, scale 0 (no effect) to 100 (complete control), read-out: Soybean plant response rating) was 75%. For the same molecule, the plant injury at 125 g/ha (soybean; 125 g ai/ha, preemergence, scale 0 (no effect) to 100 (complete control), read-out: Soybean plant response rating) was 90%, the plant injury at 250 g/ha (soybean; 250 g ai/ha, preemergence, scale 0 (no effect) to 100 (complete control), read-out: Soybean plant response rating) was 95% and the plant injury at 31 g/ha (soybean; Preemergence, 31 g ai/ha, scale 0 to 100, 0 no effect, 100 complete control, read-out: Plant response rating, Soybean) was 75%. For the same molecule, the pest or weed control at 62 g/ha (velvetleaf; 62 g ai/ha, preemergence, scale 0 (no effect) to 100 (complete control), read-out: Velvetleaf plant response rating) was 100%, the pest or weed control at 125 g/ha (velvetleaf; 125 g ai/ha, preemergence, scale 0 (no effect) to 100 (complete control), read-out: Velvetleaf plant response rating) was 100% and the pest or weed control at 250 g/ha (velvetleaf; 250 g ai/ha, preemergence, scale 0 (no effect) to 100 (complete control), read-out: Velvetleaf plant response rating) was 100%. For the same molecule, the pest or weed control at 31 g/ha (velvetleaf; Preemergence, 31 g ai/ha, scale 0 to 100, 0 no effect, 100 complete control, read-out: Plant response rating, Velvetleaf) was 90%, the pest or weed control at 62 g/ha (ragweed; 62 g ai/ha, preemergence, scale 0 (no effect) to 100 (complete control), read-out: Ragweed plant response rating) was 90% and the pest or weed control at 125 g/ha (ragweed; 125 g ai/ha, preemergence, scale 0 (no effect) to 100 (complete control), read-out: Ragweed plant response rating) was 90%. It also gave a pest or weed control at 250 g/ha (ragweed; 250 g ai/ha, preemergence, scale 0 (no effect) to 100 (complete control), read-out: Ragweed plant response rating) of 90%, a pest or weed control at 31 g/ha (ragweed; Preemergence, 31 g ai/ha, scale 0 to 100, 0 no effect, 100 complete control, read-out: Plant response rating, Ragweed) of 90% and a pest or weed control at 62 g/ha (lambsquarters; 62 g ai/ha, preemergence, scale 0 (no effect) to 100 (complete control), read-out: Lambsquarters plant response rating) of 100%. The pest or weed control at 125 g/ha (lambsquarters; 125 g ai/ha, preemergence, scale 0 (no effect) to 100 (complete control), read-out: Lambsquarters plant response rating) was 100%, the pest or weed control at 250 g/ha (lambsquarters; 250 g ai/ha, preemergence, scale 0 (no effect) to 100 (complete control), read-out: Lambsquarters plant response rating) was 100% and the pest or weed control at 31 g/ha (lambsquarters; Preemergence, 31 g ai/ha, scale 0 to 100, 0 no effect, 100 complete control, read-out: Plant response rating, Lambsquarters) was 100%. For the same molecule, the pest or weed control at 62 g/ha (waterhemp; 62 g ai/ha, preemergence, scale 0 (no effect) to 100 (complete control), read-out: Waterhemp plant response rating) was 100%, the pest or weed control at 125 g/ha (waterhemp; 125 g ai/ha, preemergence, scale 0 (no effect) to 100 (complete control), read-out: Waterhemp plant response rating) was 100% and the pest or weed control at 250 g/ha (waterhemp; 250 g ai/ha, preemergence, scale 0 (no effect) to 100 (complete control), read-out: Waterhemp plant response rating) was 100%. The pest or weed control at 31 g/ha (waterhemp; Preemergence, 31 g ai/ha, scale 0 to 100, 0 no effect, 100 complete control, read-out: Plant response rating, Waterhemp) was 100%.
